From US20080015147A1, “Method for inhibiting neuronal cell death” (priority 2006, published 2008)

What was measured:
Assay type in all cases: cell-based, mouse
caspase 8 = test: Caspase 8 colorimetric assay; conditions: pH 7.4; apoptotic control
Protocol: (§1) Caspase 8 and 3 colorimetric assays were performed on the N38 cells at all pH conditions. The assay was based on the detection of the chromophore pNA after cleavage from the labeled substrate IETD-pNA and DEVD-pNA for caspase 8 and 3, respectively. Comparison of the pNA absorbance from the suspected apoptotic sample was compared to the uninduced neutral pH sample. Caspase 8 and 3 were analysed using the Caspase-3 Colorimetric Activity Assay (Chemicon, Temecula USA) and Caspase-8 Colorimetric Activity Assay (Chemicon, Temecula USA). The cells from each pH treatment described previously at 24 and 48 hrs were removed using a cell scraper and centrifuged at 1500 rpm for 10 minutes. The cells were resuspended in 350 μl of chilled cell lysis buffer containing 500 μl PBS, 5 μl 1% Triton ×100 (Sigma, St. Louis), 25 μl proteinase inhibitor cocktail set III (VWR, Mississauga), 0.5 μM dithiothreitol (DTT) (Sigma, St. Louis) and 2.5 μl phenylmethylsulphonylfluoride (PMSF) diluted in 1 mL of methanol (EM Science, Gibbstown), then incubated on ice for 10 min and centrifuged for 5 minutes at 10,000 rpm. The supernatant, consisting of cytosolic extracts, was transferred to a new tube and a bicinchoninic acid (BCA) protein assay (Pierce, Rockford) was conducted to determine total protein concentration. The absorbance of each sample was measured on a SPECTRAmax Microplate spectrophotometer at 405 nm after an incubation period of 2 hours at 37° C. Changes in caspase 3 activity were determined by comparing the absorbance reading from the induced sample with the level of the uninduced control. Background readings from the buffer were subtracted from the reading of both the induced (pH 6.8, 8.0, 8.4) and uninduced (pH 7.4) samples before calculating changes in caspase 3 activity. The same was done for the detection of caspase 8. As a control, N38 cells were cultured with pH 7.4 DMEM and incubated for 4 days, apoptosis was then induced using 10 μM/ml etoposide and lysed according to the above protocol and used a control for all subsequent caspase 3 detection. All assays were performed with 4 replications.

caspase 3 = test: Caspase 3 colorimetric assay; conditions: pH 7.4; apoptotic control
Protocol: as §1

cleaved caspase 3 = test: Caspase 3 cleavage by immunoblot; conditions: 48 hr; any pH condition for TCAP-1
Protocol: Detection of caspase 3 cleavage was determined at 48 hrs. The samples at each pH and control (see above) were lysed using total protein isolation lysis buffer (described above). An aliquot of 25 μl of each sample was combined with 25 μl of 2×20% sodium dodecyl sulphate (SDS) sample buffer and loaded onto a 4-10% HCL-Tris pre cast polyacrylamide gel (BioRad, Mississauga). The gel was run at 200 v for 35 min and proteins were electrotransfered to a Hybond-C nitrocellulose membrane (Amersham, Baie d'Urfé) for 75 min at 100 v. After transfer, the membrane was washed with 10 ml of PBS with 0.05% Tween 20 (PBST) for 5 min at room temperature (RT) and the membrane was incubated in 10 ml of PBST-milk for one hour at RT followed by 3 times for 5 min washes with 10 ml of PBST. The membrane was then incubated with cleaved caspase 3 primary antibody (Cell Signaling Technology, Beverly) at a titre of 1:500 in 6 ml of PBST-milk with gentle agitation overnight at 4° C. The membranes were washed 3 times for 5 min with 10 ml of PBST followed by membrane incubation with anti-rabbit horseradish peroxidase (HRP)-conjugated secondary antibody (Amersham, Baie d'Urfé) at 1:3000 in 6 ml of PBST-milk with gentle agitation for 1 hr at RT. […]

COc1cc([C@@H]2c3cc4c(cc3[C@@H](O[C@@H]3O[C@@H]5CO[C@@H](C)O[C@H]5[C@H](O)[C@H]3O)[C@H]3COC(=O)[C@H]23)OCO4)cc(OC)c1O [Etoposide, etoposide, reference compound]
increase in caspase 8 relative to vehicle-treated cells (caspase 8): greater than 3 fold | increase in caspase-3 relative to vehicle-treated cells (caspase 3): 3.5 fold | caspase 3 cleavage product (17/19 kDa) on western blot (cleaved caspase 3): clearly visible
